Tested on: HCV genotype-1a variant with glutamine 30 changed to glutamate in the NS5A protein
Format: cell-based
Conditions: test compound titrated with BMS-790052 fixed at 200 nM; genotype 1a Q30E replicon
Method in brief: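 Synergy was assessed by combining several fixed amounts of an NS5A-targeting compound with a titration of the second compound of interest.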

SMILES: CC(C)(C)C(=O)N[C@H](c1ncc(-c2ccc(-c3cc4ccc(-c5cnc([C@@H](NC(=O)C(C)(C)C)C(C)(C)C)[nH]5)cc4o3)cc2)[nH]1)C(C)(C)C.O=C(O)C(F)(F)F [Compound B62]
- Fold-Synergistic 1a (Q30E): >10 fold

SMILES: CC(C)(C)[C@H](NC(=O)C1(C(O)c2ccccc2)CC1)c1nc(-c2ccc(-c3ccc(-c4c[nH]c([C@@H](NC(=O)C5(C(O)c6ccccc6)CC5)C(C)(C)C)n4)cc3)cc2)c[nH]1 (single isomer, unassigned) [Compound N-126A]
- Fold-Synergistic 1a (Q30E): >100 fold

SMILES: CC(C)(C(=O)N[C@H](c1nc(-c2ccc(-c3ccc(-c4c[nH]c([C@@H](NC(=O)C(C)(C)C(O)C5CC(F)(F)C5)C(C)(C)C)n4)cc3)cc2)c[nH]1)C(C)(C)C)C(O)C1CC(F)(F)C1 (single isomer, unassigned) [Compound N-144B]
- Fold-Synergistic 1a (Q30E): >100 fold

SMILES: CC(C)(C)OC(=O)C(=O)N[C@H](c1nc(-c2ccc(-c3ccc(-c4c[nH]c([C@@H](NC(=O)C(=O)OC(C)(C)C)C(C)(C)C)n4)cc3)cc2)c[nH]1)C(C)(C)C [Compound W-43A]
- Fold-Synergistic 1a (Q30E): >100 fold

SMILES: CC(C)(C)OC(=O)N1CCC(C)(C)[C@H]1C(=O)N[C@H](c1nc(-c2ccc(-c3ccc(-c4c[nH]c([C@@H](NC(=O)[C@H]5N(C(=O)OC(C)(C)C)CCC5(C)C)C(C)(C)C)n4)cc3)cc2)c[nH]1)C(C)(C)C [Compound W-214]
- Fold-Synergistic 1a (Q30E): >100 fold

SMILES: CCC(C)(C)C(=O)N[C@H](c1ncc(-c2ccc(-c3ccc(-c4cnc([C@@H](NC(=O)C(C)(C)CC)C(C)C)[nH]4)cc3)cc2)[nH]1)C(C)C [Compound P-68]
- Fold-Synergistic 1a (Q30E): >100 fold

SMILES: CC(C)CC(=O)NC1(c2ncc(-c3ccc(-c4ccc(-c5cnc(C6(NC(=O)CC(C)C)Cc7ccccc7C6)[nH]5)cc4)cc3)[nH]2)Cc2ccccc2C1.O=C(O)C(F)(F)F.O=C(O)C(F)(F)F [Compound N-19]
- Fold-Synergistic 1a (Q30E): <10 fold

SMILES: Cc1noc(C)c1C(=O)N[C@H](c1ncc(-c2ccc(-c3ccc(-c4cnc([C@@H](NC(=O)c5c(C)noc5C)C(C)C)[nH]4)cc3)cc2)[nH]1)C(C)C [Compound S-96]
- Fold-Synergistic 1a (Q30E): >100 fold

SMILES: CC(C)[C@H](NC(=O)C(C)(C)C)c1nc(-c2ccc(-c3ccc(-c4c[nH]c([C@@H](NC(=O)C(C)(C)C)C(C)C)n4)nc3)cc2)c[nH]1 [Compound N-101, N—((S)-2-methyl-1-(4-(4-(6-(2-((S)-2-methyl-1-pivalamidopropyl)-1H-imidazol-4-yl)pyridin-3-yl)phenyl)-1H-imidazol-2-yl)propyl)pivalamide]
- Fold-Synergistic 1a (Q30E): >100 fold

SMILES: CC(C)(C)[C@H](NC(=O)C(=O)N1CCC(C(F)(F)F)CC1)c1nc(-c2ccc(-c3ccc(-c4c[nH]c([C@@H](NC(=O)C(=O)N5CCC(C(F)(F)F)CC5)C(C)(C)C)n4)cc3)cc2)c[nH]1 [Compound W-60]
- Fold-Synergistic 1a (Q30E): >100 fold

SMILES: CC1(C)CC1C(=O)N[C@H](c1ncc(-c2ccc(-c3ccc(-c4cnc([C@@H](NC(=O)C5CC5(C)C)C(C)(C)C)[nH]4)cc3)cc2)[nH]1)C(C)(C)C (single isomer, unassigned) [Compound B79]
- Fold-Synergistic 1a (Q30E): >100 fold

SMILES: CC(C)CC(=O)N1CCC[C@H]1c1ncc(-c2ccc(-c3ccc(C4=CNC([C@@H]5CCCN5C(=O)CC(C)C)N4)cc3)cc2)[nH]1 (some centres unmarked) [Compound S-112]
- Fold-Synergistic 1a (Q30E): <10 fold

SMILES: Cc1cc(-c2c[nH]c(C3CC[C@H](C)N3C(=O)C(=O)N3CCC(F)(F)CC3)n2)ccc1-c1ccc(-c2c[nH]c(C3CC[C@H](C)N3C(=O)C(=O)N3CCC(F)(F)CC3)n2)cc1 (some centres unmarked) [Compound W-242]
- Fold-Synergistic 1a (Q30E): >100 fold

SMILES: CC(C)(C)COC(=O)N1CCC[C@H]1c1ncc(-c2ccc(-c3ccc(-c4cnc([C@@H]5CCCN5C(=O)OCC(C)(C)C)[nH]4)cc3)cc2)[nH]1 [Compound S-221]
- Fold-Synergistic 1a (Q30E): >10 fold

SMILES: O=C(c1cccc2ccccc12)N1CCC[C@H]1c1ncc(-c2ccc(-c3ccc(-c4cnc([C@@H]5CCCN5C(=O)c5cccc6ccccc56)[nH]4)cc3)cc2)[nH]1 [Compound S-119]
- Fold-Synergistic 1a (Q30E): >10 fold

SMILES: CC(C)(C(=O)N[C@H](c1nc(-c2ccc(-c3ccc(-c4c[nH]c([C@@H](NC(=O)C(C)(C)C(O)c5ccccc5F)C(C)(C)C)n4)cc3)cc2)c[nH]1)C(C)(C)C)C(O)c1ccccc1F (single isomer, unassigned) [Compound N-124B]
- Fold-Synergistic 1a (Q30E): >100 fold

SMILES: COC(C)(COCc1ccccc1)C(=O)N[C@H](c1nc(-c2ccc(-c3ccc(-c4c[nH]c([C@@H](NC(=O)C(C)(COCc5ccccc5)OC)C(C)(C)C)n4)cc3)cc2)c[nH]1)C(C)(C)C.O=C(O)C(F)(F)F.O=C(O)C(F)(F)F (single isomer, unassigned) [Compound W-230]
- Fold-Synergistic 1a (Q30E): >100 fold

SMILES: CC(C)(C)[C@H](NC(=O)C(C)(O)C1(C)CC1)c1nc(-c2ccc(-c3ccc(-c4c[nH]c([C@@H](NC(=O)C(C)(O)C5(C)CC5)C(C)(C)C)n4)cc3)cc2)c[nH]1 (single isomer, unassigned) [Compound L-93c]
- Fold-Synergistic 1a (Q30E): >100 fold

SMILES: Cn1cccc1C(O)C(C)(C)C(=O)N[C@H](c1nc(-c2ccc(-c3ccc(-c4c[nH]c([C@@H](NC(=O)C(C)(C)C(O)c5cccn5C)C(C)(C)C)n4)cc3)cc2)c[nH]1)C(C)(C)C (mixture of isomers) [Compound N-129]
- Fold-Synergistic 1a (Q30E): >100 fold

SMILES: CC(C)(C)OC(=O)N1CC2(CC(C(=O)NC(c3nc(-c4ccc(-c5ccc(-c6c[nH]c(C(NC(=O)C7CC8(C7)CN(C(=O)OC(C)(C)C)C8)C(C)(C)C)n6)cc5)cc4)c[nH]3)C(C)(C)C)C2)C1 [Compound L-57]
- Fold-Synergistic 1a (Q30E): >100 fold

SMILES: CC1([C@H](NC(=O)C2(C(C)(C)O)CC2)c2ncc(-c3ccc(-c4ccc(-c5cnc([C@@H](NC(=O)C6(C(C)(C)O)CC6)C6(C)CC6)[nH]5)cc4)cc3)[nH]2)CC1 [Compound B149]
- Fold-Synergistic 1a (Q30E): >100 fold

SMILES: CN1CCC[C@H]1C(=O)N[C@H](c1nc(-c2ccc(-c3ccc(-c4c[nH]c([C@@H](NC(=O)[C@@H]5CCCN5C)C(C)(C)C)n4)cc3)cc2)c[nH]1)C(C)(C)C [Compound P-36]
- Fold-Synergistic 1a (Q30E): >10 fold

SMILES: CC(C)[C@H](NC(=O)Cc1ccccc1)c1ncc(-c2ccc(-c3ccc(-c4cnc([C@@H](NC(=O)Cc5ccccc5)C(C)C)[nH]4)cc3)cc2)[nH]1 [Compound S-36]
- Fold-Synergistic 1a (Q30E): >10 fold

SMILES: CC(C)(C)OC(=O)NC1(C(=O)N[C@H](c2nc(-c3ccc(-c4ccc(-c5c[nH]c([C@@H](NC(=O)C6(NC(=O)OC(C)(C)C)CCCC6)C(C)(C)C)n5)cc4)cc3)c[nH]2)C(C)(C)C)CCCC1.O=C(O)C(F)(F)F.O=C(O)C(F)(F)F [Compound L-6]
- Fold-Synergistic 1a (Q30E): >100 fold

SMILES: CC(C)(C)OC(=O)N1C(C(=O)NC(c2nc(-c3ccc(-c4ccc(-c5c[nH]c(C(NC(=O)C6COC(C)(C)N6C(=O)OC(C)(C)C)C(C)(C)C)n5)cc4)cc3)c[nH]2)C(C)(C)C)COC1(C)C [Compound L-55]
- Fold-Synergistic 1a (Q30E): >100 fold

SMILES: CC1(C)COC(C)(C(=O)N[C@H](c2nc(-c3ccc(-c4ccc(-c5c[nH]c([C@@H](NC(=O)C6(C)OCC(C)(C)CO6)C(C)(C)C)n5)cc4)cc3)c[nH]2)C(C)(C)C)OC1 [Compound P-154]
- Fold-Synergistic 1a (Q30E): >100 fold

SMILES: COC(C)(CO)C(=O)N[C@H](c1nc(-c2ccc(-c3ccc(-c4c[nH]c([C@@H](NC(=O)C(C)(CO)OC)C(C)(C)C)n4)cc3)cc2)c[nH]1)C(C)(C)C (some centres unmarked) [Compound W-235]
- Fold-Synergistic 1a (Q30E): >100 fold

SMILES: CC(C)(C)[C@H](NC(=O)C(C)(C)C1(O)CCC(F)(F)CC1)c1nc(-c2ccc(-c3ccc(-c4c[nH]c([C@@H](NC(=O)C(C)(C)C5(O)CCC(F)(F)CC5)C(C)(C)C)n4)cc3)cc2)c[nH]1 [Compound P-149]
- Fold-Synergistic 1a (Q30E): >100 fold

SMILES: CC(=O)c1ccc2cc3cc(-c4cnc([C@@H](NC(=O)C5CCC(F)(F)CC5)C(C)(C)C)[nH]4)ccc3cc2c1 [Compound B28]
- Fold-Synergistic 1a (Q30E): >100 fold

SMILES: C=C1C[C@@H](C(=O)N[C@H](c2nc(-c3ccc(-c4ccc(-c5c[nH]c([C@@H](NC(=O)[C@@H]6CC(=C)CN6C(=O)OC(C)(C)C)C(C)(C)C)n5)cc4)cc3)c[nH]2)C(C)(C)C)N(C(=O)OC(C)(C)C)C1 [Compound W-91]
- Fold-Synergistic 1a (Q30E): >100 fold

SMILES: CN(C(=O)OC(C)(C)C)C1(C(=O)N[C@H](c2nc(-c3ccc(-c4ccc(-c5c[nH]c([C@@H](NC(=O)C6(N(C)C(=O)OC(C)(C)C)CC6)C(C)(C)C)n5)cc4)cc3)c[nH]2)C(C)(C)C)CC1.O=C(O)C(F)(F)F.O=C(O)C(F)(F)F [Compound L-13]
- Fold-Synergistic 1a (Q30E): >100 fold

SMILES: O=C(c1nccc2ccccc12)N1CCC[C@H]1c1ncc(-c2ccc(-c3ccc(-c4cnc([C@@H]5CCCN5C(=O)c5nccc6ccccc56)[nH]4)cc3)cc2)[nH]1 [Compound S-202]
- Fold-Synergistic 1a (Q30E): >100 fold

SMILES: CC(C)(C)[C@H](NC(=O)C(=O)N1CCC(F)CC1)c1nc(-c2ccc(-c3ccc(-c4c[nH]c([C@@H](NC(=O)C(=O)N5CCC(F)CC5)C(C)(C)C)n4)cc3)cc2)c[nH]1 [Compound W-26]
- Fold-Synergistic 1a (Q30E): >100 fold

SMILES: CC1CCCCN1C(=O)C(=O)NC(c1nc(-c2ccc(-c3ccc(-c4c[nH]c(C(NC(=O)C(=O)N5CCCCC5C)C(C)(C)C)n4)cc3)cc2)c[nH]1)C(C)(C)C (centres unmarked) [Compound W-38]
- Fold-Synergistic 1a (Q30E): >100 fold

SMILES: CC(C)[C@H](NC(=O)C1CCCCO1)c1ncc(-c2ccc(-c3ccc(-c4cnc([C@@H](NC(=O)C5CCCCO5)C(C)C)[nH]4)cc3)cc2)[nH]1 (single isomer, unassigned) [Compound Y-55]
- Fold-Synergistic 1a (Q30E): >10 fold

SMILES: O=C(c1cccc(Oc2ccccc2)c1)N1CCC[C@H]1c1ncc(-c2ccc(-c3ccc(-c4cnc([C@@H]5CCCN5C(=O)c5cccc(Oc6ccccc6)c5)[nH]4)cc3)cc2)[nH]1 [Compound S-116]
- Fold-Synergistic 1a (Q30E): <10 fold

SMILES: CC(C)C(NC(=O)C1CC(O)CN1C(=O)OC(C)(C)C)c1nc(-c2ccc(-c3ccc(-c4c[nH]c(C(NC(=O)C5CC(O)CN5C(=O)OC(C)(C)C)C(C)C)n4)cc3)cc2)c[nH]1 (centres unmarked) [Compound W-100]
- Fold-Synergistic 1a (Q30E): >100 fold

SMILES: COC(CO)(CC(C)C)C(=O)N[C@H](c1nc(-c2ccc(-c3ccc(-c4c[nH]c([C@@H](NC(=O)C(CO)(CC(C)C)OC)C(C)(C)C)n4)cc3)cc2)c[nH]1)C(C)(C)C (single isomer, unassigned) [Compound N-160B]
- Fold-Synergistic 1a (Q30E): >100 fold

Reference: patent publication US20160158200A1, “Combinations of Hepatitis C Virus Inhibitors” (priority 2013, published 2016)
